Experimental data: US10583109B2, “Use of silver(I) complexes as anticancer agents” (University of Johannesburg, priority 2012, dated 2020)

Key:
[1] = tested on: MCF-7 breast cancer cells; test: Morphological features of MCF-7 cells by inverse light microscopy; assay type: cell-based, human; conditions: 10 μM, 24 hours after treatment, compared to 100 μM Cisplatin apoptotic control
Method: The morphological features of MCF-7 cells following differential treatments were evaluated by inverse light microscopy as depicted in FIG. 4. Untreated cells served as the control, while 1% DMSO served as the solvent control and 100 μM Cisplatin indicates apoptotic cells. Cells were exposed to 10 μM of complexes (1)-(5). Morphological changes of the cell indicative of apoptosis include cell shrinkage and blebbing.
In the light of the decreased viability, the morphology of the cells was studied 24 hours after treatment with 10 μM of complexes (1), (2), (3), (4) and (5) to determine if apoptotic or necrotic features were present. The morphology of the cells was compared to the apoptotic control treated with 100 μM Cisplatin (FIG. 4).

[2] = tested on: A-549 lung cancer cells; test: AlamarBlue viability and proliferation assay of A-549 lung cancer cells; assay type: cell-based; conditions: 2.5 μM, 24 h
Method: A-549 lung cancer cells were maintained in DMEM supplemented with 10% fetal calf serum (FCS), 1 mM pyruvate, 2 mM L-glutamine (Highveld Biological, Kelvin, RSA), 1% antibiotics (penicillin, streptomycin, amphotericin (Highveld Biological, Kelvin, RSA) and gentamycin (Invitrogen Life Technologies, Eugene, Oreg.)).
Cells (1×10^4 cells/well) were plated in 96-well flat-bottomed plates and incubated for 24 h at 37° C. with 5% CO2. All compounds were preheated for 30 min prior treatment. After 24 h compounds (2.5 μM) were mixed with supplemented media and incubated for 24 h. For the untreated control supplemented media was used. Since all compounds were dissolved in DMSO, a 1% DMSO was used as a vehicle control.
The A-549 lung cancer cells were incubated at 37° C. for 3 h in the presence of 10% AlamarBlue® viability and proliferation assay (Invitrogen Life Technologies, Eugene, Oreg.). […] Fluorescence was measured at 530-560 nm (excitation) and 590 nm (emission).
FIG. 27 is a bar chart showing percentage cellular viability of fibroblast cells and A-549 lung cancer cells treated with various molar ratios (complexes (6)-(9)) using the AlamarBlue® cell viability assay whereby the molar ratio of the silver(I) nitrate salt: phosphine ligand of 1:1, 1:2, 1:3 and 1:4 was assessed. Fluorescence was measured with 530 nm excitation wavelength and 590 nm emission wavelength. […]

| SMILES | cell morphology (apoptotic or necrotic features) [1] | toxicity to A-549 lung cancer cells [2] |
| --- | --- | --- |
| C1#[N+][Ag]([P+](c2ccccc2)(c2ccccc2)c2ccccc2)([P+](c2ccccc2)(c2ccccc2)c2ccccc2)[S]C#[N+][Ag]([P+](c2ccccc2)(c2ccccc2)c2ccccc2)([P+](c2ccccc2)(c2ccccc2)c2ccccc2)[S]1 [complex (1), [AgSCN(PPh3)2]2] | morphology characteristic of necrosis | – |
| c1ccc([P+](c2ccccc2)(c2ccccc2)[Ag+]([P+](c2ccccc2)(c2ccccc2)c2ccccc2)([P+](c2ccccc2)(c2ccccc2)c2ccccc2)[P+](c2ccccc2)(c2ccccc2)c2ccccc2)cc1 [complex (9), AgNO3(PPh3)4] | – | higher toxicity level |
